From patent publication US7632930B2, “Oligosaccharide derivative” (Sankyo Company Limited, priority 2003, dated 2009)

Key:
[1] = molecular target: T1, human pancreatic α-amylase (HPA) (Homo sapiens, UniProt P04746); assay: α-Amylase inhibitory action (blue starch, Neo-Amylase Test); type: biochemical; settings: final concentration required to inhibit the activity of the HPA solution by 50%; 37° C.
T1 construct: purchased International Reagents Caribzyme AMY
T1 sequence (P04746 16-511): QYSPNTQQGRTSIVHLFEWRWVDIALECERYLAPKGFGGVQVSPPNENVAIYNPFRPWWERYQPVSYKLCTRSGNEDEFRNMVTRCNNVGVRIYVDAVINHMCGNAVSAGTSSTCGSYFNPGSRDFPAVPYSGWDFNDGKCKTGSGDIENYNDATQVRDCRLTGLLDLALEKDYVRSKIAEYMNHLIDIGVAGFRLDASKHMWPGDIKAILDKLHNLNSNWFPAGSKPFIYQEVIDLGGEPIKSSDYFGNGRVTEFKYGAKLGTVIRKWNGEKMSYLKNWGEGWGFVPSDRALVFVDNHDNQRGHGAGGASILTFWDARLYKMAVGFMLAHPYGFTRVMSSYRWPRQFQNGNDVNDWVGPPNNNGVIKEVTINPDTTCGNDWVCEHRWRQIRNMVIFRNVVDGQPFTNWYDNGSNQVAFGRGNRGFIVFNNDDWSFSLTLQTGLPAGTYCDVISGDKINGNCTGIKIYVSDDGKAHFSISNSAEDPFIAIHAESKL
Experimental: “Caribzyme AMY” (International Reagents) was used for the human pancreatic α-amylase (HPA). Purified water was added to the commercially available HPA and dissolved to a concentration of 200 IU/l to prepare an α-amylase solution. The activity of the α-amylase was measured using a commercially available α-amylase assay reagent (“Neo-Amylase Test Daiichi”, Daiichi Pure Chemicals).
Each test compound was prepared with distilled water to a final concentration of 0.1 to 30 μg/ml, respectively.
After incubating for 10 minutes at 37° C., a blue starch tablet (“Neo-Amylase Test Daiichi”, Daiichi Pure Chemicals) was added followed by stirring for about 10 seconds with a mixer and heating for 30 minutes at 37° C. […] In addition, distilled water was added instead of α-amylase for use as a blank. […] Inhibition rate(%)=[1−{(Absorbance of control)−(absorbance of blank)}/{(absorbance when inhibitor added)−(absorbance of blank)}]×100

normal mice (ddY mice) = assay: Postprandial hyperglycemia inhibitory action (cornstarch loading); type: in vivo; settings: ddY mice fasted 20 hours; oral 0.3 mg (test compound)/2 g (cornstarch)/kg; AUC of increase in blood glucose levels, 0.5-3 hours after dosing, vs control group
Experimental: Commercially available normal mice (ddY mice, males, age 8 weeks at the time of testing, supplied by Japan SLC).
(§1) (2) Experimental Methods and Results
For the dose group, a test compound and commercially available cornstarch were mixed well with 0.5% carboxymethyl cellulose to prepare a suspension that was orally administered at 0.3 mg (test compound)/2 g (cornstarch)/kg (body weight) to five mice that had been fasted in advance for 20 hours. The control group was administered with a similar suspension in the same manner with the exception of not containing the test compound.
Blood glucose levels were measured using a blood glucose analyzer (Glucoloader GXT, A & T). Inhibition rate(%)=[1−(dose group AUC/control group blood glucose increase AUC)]×100

[2] = test system: genetically obese diabetic mice (C57BL/KsJ-db/db mice); assay: Blood glucose lowering action in genetically obese diabetic mice; type: in vivo; settings: 0.005% (w/w) in diet, freely ingested for 1 week, vs control group
Source text: Commercially available, genetically obese diabetic mice (C57BL/KsJ-db/db mice, males, age 16 weeks at the time of testing, supplied by Clea Japan).
as §1
A test compound was mixed into a refined laboratory animal diet (carbohydrate content: 65.95% (w/w), Oriental Yeast) to a test compound concentration of 0.005% (w/w) and allowed to be freely ingested by diabetic mice for 1 week in groups of 5 mice per group. A control group was allowed similar unrestricted access to the same feed with the exception of not containing the test compound.
Blood glucose levels were measured before the start of dosing and one week after the start of dosing. Blood samples were collected from a tail vein and blood glucose levels were measured using a blood glucose analyzer (Glucoloader GXT, A & T) to calculate the blood glucose lowering rate (%) according to the following formula. Blood glucose lowering rate(%)=[1−(compound dose group blood glucose level/control group blood glucose level)]×100

C[C@H]1O[C@H](O[C@H]2[C@H](O)[C@@H](O)[C@@H](O[C@H]3[C@H](O)CN[C@@H]3CO)O[C@@H]2CO)[C@H](O)[C@@H](O)[C@@H]1O [Example 1, (2R,3R,4R)-4-Hydroxy-2-(hydroxymethyl)pyrrolidin-3-yl 4-O-(6-deoxy-α-D-glucopyranosyl)-α-D-glucopyranoside]
IC50 [1]: 1590 nM

C[C@H]1O[C@@H](O[C@H]2[C@H](O)[C@@H](O)[C@@H](O[C@H]3[C@H](O)CN[C@@H]3CO)O[C@@H]2CO)[C@H](O)[C@@H](O)[C@@H]1O [Example 2, (2R,3R,4R)-4-Hydroxy-2-(hydroxymethyl)pyrrolidin-3-yl 4-O-(6-deoxy-β-D-glucopyranosyl)-α-D-glucopyranoside]
Inhibition Rate (normal mice (ddY mice)): 64%
IC50 [1]: 453 nM
Blood Glucose Lowering Rate [2]: 47%

C[C@H]1O[C@@H](O[C@H]2[C@H](O)[C@@H](O)[C@@H](O[C@H]3[C@H](O)[C@@H](CO)N[C@@H]3CO)O[C@@H]2CO)[C@H](O)[C@@H](O)[C@@H]1O [Example 7, (2R,3R,4R,5R)-2,5-Dihydroxymethyl-4-hydroxypyrrolidin-3-yl 4-O-(6-deoxy-β-D-glucopyranosyl)-α-D-glucopyranoside]
IC50 [1]: 8480 nM

COC[C@H]1O[C@@H](O[C@H]2[C@H](O)[C@@H](O)[C@@H](O[C@H]3[C@H](O)CN[C@@H]3CO)O[C@@H]2CO)[C@H](O)[C@@H](O)[C@@H]1O [Example 8, (2R,3R,4R)-4-Hydroxy-2-hydroxymethyl-pyrrolidin-3-yl 4-O-(6-methoxy-6-deoxy-β-D-glucopyranosyl)-D-glucopyranoside]
IC50 [1]: 848 nM

C[C@H]1O[C@H](O[C@H]2[C@H](O)[C@@H](O)[C@H](O[C@H]3[C@H](O)CN[C@@H]3CO)O[C@@H]2CO)[C@H](O)[C@@H](O)[C@@H]1O [Example 13, (2R,3R,4R)-4-Hydroxy-2-hydroxymethyl-pyrrolidin-3-yl 4-O-(6-deoxy-α-D-glucopyranosyl)-β-D-glucopyranoside]
IC50 [1]: 9060 nM

C[C@H]1O[C@H](O[C@H]2[C@H](O)[C@@H](O)[C@@H](O[C@H]3[C@H](O)[C@@H](O)[C@H](N)[C@@H]3CO)O[C@@H]2CO)[C@H](O)[C@@H](O)[C@@H]1O [Example 14, (1R,2S,3R,4R,5R)-1-Amino-2,3-dihydroxy-5-hydroxymethyl-cyclopent-4-yl 4-O-(6-deoxy-α-D-glucopyranosyl)-α-D-glucopyranoside]
IC50 [1]: 2120 nM

C[C@H]1O[C@@H](O[C@H]2[C@H](O)[C@@H](O)[C@@H](O[C@H]3[C@H](O)[C@@H](O)[C@H](N)[C@@H]3CO)O[C@@H]2CO)[C@H](O)[C@@H](O)[C@@H]1O [Example 15, (1R,2S,3R,4R,5R)-1-Amino-2,3-dihydroxy-5-hydroxymethyl-cyclopent-4-yl 4-O-(6-deoxy-β-D-glucopyranosyl)-α-D-glucopyranoside]
IC50 [1]: 1270 nM
